Measurements taken from patent publication US20130109734A1 (Metabolex, Inc., priority 2010, published 2013).

biological target: T1, human GPR120 (Homo sapiens, UniProt Q5NUL3); assay: Intracellular Ca2+ assay in human GPR120 stable cell line (HEK293 co-expressing Gqi5), Flexstation; type: cell-based; details: % activity at 5 μM compared to the maximal activity of GW9508 at 6.7 μM (=100%); human GPR120 cells, Ca2+ fluorescence
T1 construct: host or cells: HEK293 cells co-expressing Gqi5
T1 sequence (Q5NUL3 1-361): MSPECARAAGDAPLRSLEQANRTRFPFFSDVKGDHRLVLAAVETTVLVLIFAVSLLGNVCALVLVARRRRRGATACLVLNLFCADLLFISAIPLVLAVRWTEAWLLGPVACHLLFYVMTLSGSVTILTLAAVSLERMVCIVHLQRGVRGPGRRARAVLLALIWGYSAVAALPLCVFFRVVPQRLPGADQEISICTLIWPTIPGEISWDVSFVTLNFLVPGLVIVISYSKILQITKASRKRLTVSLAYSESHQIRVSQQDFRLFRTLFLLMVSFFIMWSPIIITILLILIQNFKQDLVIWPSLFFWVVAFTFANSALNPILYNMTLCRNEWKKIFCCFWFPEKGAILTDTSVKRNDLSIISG
Summary of the method: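 HEK293 cells stably co-expressing Gqi5 and Flag-tagged human GPR120, loaded with Calcium 4 dye in HBSS/HEPES pH 7.4 at 37 °C; compounds at eight concentrations, 0.00001–20 μM, fluorescence (485/525 nm) read 90 s. EC50 from Max−Min change; percent activity relative to GW9508 maximum at 6.7 μM.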

% Activity (GW9508 Reference Compound) [%]	Structure (SMILES)
51.55	CC(Cc1cc(F)c(OCc2cc(OCc3ccccc3)cc3c2OC(C)(C)C3)c(F)c1)C(=O)O (stereo not shown) [Example 111, 3-(4-((5-(benzyloxy)-2,2-dimethyl-2,3-dihydrobenzofuran-7-yl)methoxy)-3,5-difluorophenyl)-2-methylpropanoic acid]
115.42	CC1(C)Cc2cc(Cl)cc(COc3ccc4c(c3)CC(C(=O)O)C4)c2O1 (stereo not shown) [Example 112, 5-((5-chloro-2,2-dimethyl-2,3-dihydrobenzofuran-7-yl)methoxy)-2,3-dihydro-1H-indene-2-carboxylic acid]
123.58	CC1(C)Cc2cc(F)cc(COc3ccc4cc(C(=O)O)ccc4c3)c2O1 [Example 114, 6-((5-fluoro-2,2-dimethyl-2,3-dihydrobenzofuran-7-yl)methoxy)-2-naphthoic acid]
151.78	CC(C)Oc1cc(OCc2cc(F)cc3c2OC(C)(C)C3)ccc1CCC(=O)O [Example 115, 3-(4-((5-fluoro-2,2-dimethyl-2,3-dihydrobenzofuran-7-yl)methoxy)-2-isopropoxyphenyl)propanoic acid]
145.6	CC(C)Oc1cc(OCc2cc(Cl)cc3c2OC(C)(C)C3)ccc1CCC(=O)O [Example 116, 3-(4-((5-chloro-2,2-dimethyl-2,3-dihydrobenzofuran-7-yl)methoxy)-2-isopropoxyphenyl)propanoic acid]
104.49	Cc1cc2cc(Cl)cc(COc3ccc(CC(C)C(=O)O)cc3F)c2o1 (stereo not shown) [Example 120, 3-(4-((5-chloro-2-methylbenzofuran-7-yl)methoxy)-3-fluorophenyl)-2-methylpropanoic acid]
3.58	CN(C)Cc1cc(OCc2cc(F)cc3c2OC(C)(C)C3)ccc1CCC(=O)O [Example 122, 3-(2-((dimethylamino)methyl)-4-((5-fluoro-2,2-dimethyl-2,3-dihydrobenzofuran-7-yl)methoxy)phenyl)propanoic acid]
47.01	CC(=O)Nc1cc(COc2ccc(CC(C)C(=O)O)cc2)c2c(c1)CC(C)(C)O2 (stereo not shown) [Example 123, 3-(4-((5-acetamido-2,2-dimethyl-2,3-dihydrobenzofuran-7-yl)methoxy)phenyl)-2-methylpropanoic acid]
131.64	CC(Cc1ccc(OCc2cc(OC(F)(F)F)cc3c2OC(C)(C)C3)cc1)C(=O)O (stereo not shown) [Example 124, 3-(4-((2,2-dimethyl-5-(trifluoromethoxy)-2,3-dihydrobenzofuran-7-yl)methoxy)phenyl)-2-methylpropanoic acid]
32.57	Cc1cc2c(OCc3cc(F)cc4c3OC(C)(C)C4)ccc(CCC(=O)O)c2o1 [Example 125, 3-(4-((5-fluoro-2,2-dimethyl-2,3-dihydrobenzofuran-7-yl)methoxy)-2-methylbenzofuran-7-yl)propanoic acid]
47.02	CC(=O)NCCOC(=O)C(C)Cc1ccc(OCc2cc(Cl)cc3c2OC(C)(C)C3)c(C(F)(F)F)c1 (stereo not shown) [Example 126, 2-acetamidoethyl 3-(4-((5-chloro-2,2-dimethyl-2,3-dihydrobenzofuran-7-yl)methoxy)-3-(trifluoromethyl)phenyl)-2-methylpropanoate]
152.93	CC1(C)Cc2cc(Cl)cc(CNc3ccc(CCC(=O)O)cc3)c2O1 [Example 127, 3-(4-(((5-chloro-2,2-dimethyl-2,3-dihydrobenzofuran-7-yl)methyl)amino)phenyl)propanoic acid]
103.85	CC(Cc1ccc(OCc2cc(Cl)cc3c2OC(C)(C)C3O)cc1)C(=O)O (stereo not shown) [Example 130, 3-(4-((5-chloro-3-hydroxy-2,2-dimethyl-2,3-dihydrobenzofuran-7-yl)methoxy)phenyl)-2-methylpropanoic acid]
103.4	CC1(C)Cc2cc(F)cc(COc3ccc(CC(=O)O)cc3)c2O1 [Example 133, 2-(4-((5-fluoro-2,2-dimethyl-2,3-dihydrobenzofuran-7-yl)methoxy)phenyl)acetic acid]
151.44	CCc1cc(OCc2cc(F)cc3c2OC(C)(C)C3)ccc1CCC(=O)O [Example 134, 3-(2-ethyl-4-((5-fluoro-2,2-dimethyl-2,3-dihydrobenzofuran-7-yl)methoxy)phenyl)propanoic acid]
140.51	CC1(C)Cc2cc(F)cc(COc3ccc(CCC(=O)O)c(OC(F)(F)F)c3)c2O1 [Example 136, 3-(4-((5-fluoro-2,2-dimethyl-2,3-dihydrobenzofuran-7-yl)methoxy)-2-(trifluoromethoxy)phenyl)propanoic acid]
146.18	CCc1cc(OCc2cccc3c2CC(C)(C)O3)ccc1CCC(=O)O [Example 140, 3-(4-((2,2-dimethyl-2,3-dihydrobenzofuran-4-yl)methoxy)-2-ethylphenyl)propanoic acid]
143.3	C[C@H](Cc1ccc(OCc2cc(Cl)cc3c2OC(C)(C)C3)c(F)c1)C(=O)O [Example 141, (R)-3-(4-((5-chloro-2,2-dimethyl-2,3-dihydrobenzofuran-7-yl)methoxy)-3-fluorophenyl)-2-methylpropanoic acid]
90.56	C[C@H](Cc1ccc(OCc2cc(Cl)cc3c2OC(C)(C)C3)c(C(F)(F)F)c1)C(=O)O [Example 143, (R)-3-(4-((5-chloro-2,2-dimethyl-2,3-dihydrobenzofuran-7-yl)methoxy)-3-(trifluoromethyl)phenyl)-2-methylpropanoic acid]
143.69	[2H]C1([2H])c2cc(F)cc(COc3ccc(CC(C)C(=O)O)cc3)c2OC1(C)C (stereo not shown) [Example 145, 3-(4-((3,3-dideuterio-5-fluoro-2,2-dimethyl-2,3-dihydrobenzofuran-7-yl)methoxy)phenyl)-2-methylpropanoic acid]
140.72	[2H]C1([2H])c2cc(Cl)cc(COc3ccc(CC(C)C(=O)O)cc3F)c2OC1(C)C (stereo not shown) [Example 146, 3-(4-((3,3-dideuterio-5-chloro-2,2-dimethyl-2,3-dihydrobenzofuran-7-yl)methoxy)-3-fluorophenyl)-2-methylpropanoic acid]
138.65	[2H]C1([2H])c2cc(Cl)cc(COc3ccc(CC(C)C(=O)O)cc3C(F)(F)F)c2OC1(C)C (stereo not shown) [Example 147, 3-(4-((3,3-dideuterio-5-chloro-2,2-dimethyl-2,3-dihydrobenzofuran-7-yl)methoxy)-3-(trifluoromethyl)phenyl)-2-methylpropanoic acid]
113.89	CC(Cc1ccc(OCc2cc(Cl)cc3c2OCC3(C)C)cc1)C(=O)O (stereo not shown) [Example 148, 3-(4-((5-chloro-3,3-dimethyl-2,3-dihydrobenzofuran-7-yl)methoxy)phenyl)-2-methylpropanoic acid]
117.38	Cc1cc2cccc(COc3c(F)cc(CC(C)C(=O)O)cc3F)c2s1 (stereo not shown) [Example 151, 3-(3,5-difluoro-4-((2-methylbenzo[b]thiophen-7-yl)methoxy)phenyl)-2-methylpropanoic acid]
83.81	Cc1cc2cccc(COc3ccc4c(c3)CCC4CC(=O)O)c2s1 (stereo not shown) [Example 152, 2-(5-((2-methylbenzo[b]thiophen-7-yl)methoxy)-2,3-dihydro-1H-inden-1-yl)acetic acid]
